Reference: paper PMC8602566 (Frontiers in Oncology, 2021)

Tests used:
SIRT1 = SIRT1 (Homo sapiens, UniProt Q96EB6); test: HDACs inhibition assay, SIRT1
Procedure: The inhibition assays for HDACs were carried out according to standard protocols. […] The reaction was stopped by the addition of 45 μl of 100 mM HEPES (pH 7.5) and 0.08% sodium dodecyl sulfate (SDS). The substrate and the product were then separated electrophoretically using a LabChip 3000 system (Caliper Life Sciences, Hopkinton, MA) with blue laser excitation and green fluorescence detection.

[1] = system: acetylated histone H3 in U87 cells; test: Western blot analysis for H3-histone acetylation; format: cell-based, Human; settings: various concentrations, 24 h
Procedure: U87 cells (5 × 10^5 cells/ml) in six-well plates were incubated with DMC-HA and lysed in radioimmunoprecipitation assay (RIPA) buffer containing protease and phosphatase inhibitors. Protein contents in the lysates were determined by Bradford’s assay, and 50 μg was separated by SDS polyacrylamide gel electrophoresis (SDS-PAGE) electrophoresis. Proteins were transferred to membranes and probed with human anti-acetylated H3 and anti-β actin antibodies as a loading control. Membranes were then labeled with the appropriate horseradish peroxidase (HRP)-conjugated immunoglobulin G (IgG), and protein bands were visualized using enhanced chemiluminescence. (Bio-Rad, Hercules, CA, USA).
Next, DMC-HA-induced acetylation of histone H3 in living cells was analyzed using Western blot method.

U87 tumor xenograft = settings: nude mice, 20 mg/kg once daily
Excerpt: Six-week-old BALB/c nude mice were purchased from Shanghai Experimental Animal Center of Chinese Academy of Science (Shanghai, China). All animal protocols were implemented according to the guidelines of the Association for Assessment and Accreditation of Laboratory Animal Care. U87 cells (3 × 10^6) were subcutaneously implanted into the right flank of mice. After 6 days of tumor growth, tumors grew to approximately 100 mm^3, and mice were randomly divided into three groups with nine animals in each group. […] The control group was intraperitoneally injected an equal volume of DMSO. Body weights and tumor volumes were measured every 2 days. After treatment, all of the mice were sacrificed, and the tumors were harvested, weighted, and photographed. The tumor volume was calculated according the formula: tumor volume = (length × width^2)/2.
U87 cells were subcutaneously inoculated into the right flank of mice.

[2] = Hepatic microsome stability assay, human; format: in vitro ADME; settings: human liver microsomes, NADPH, 37°C, pH 7.4
Procedure: (§1) Metabolic stability was assessed in the presence of human, mouse, and rat liver microsomes (XenoTech, Lenexa, KS, USA). All liquid dispenses and transfer steps were performed with the Freedom Evo automated liquid handler (Tecan US). Compound stock solutions were initially prepared in 100% DMSO and subsequently diluted in acetonitrile for the assay. The pH of the reactions was kept at 7.4 with potassium phosphate buffer. The reaction wells were prepared by adding microsomes to a well and allowed to warm to 37°C. Then, compound was added to each well. The reactions were […] by adding cofactor reduced nicotinamide adenine dinucleotide phosphate (NADPH) to the reaction well containing microsomes and compounds. Negative controls received buffer only. Immediately after reactions started, 0-min aliquots were promptly collected and mixed in a separate well with ice cold acetonitrile to quench the reactions. The remainder of the reaction volume was incubated at 37°C with shaking. An additional aliquot was collected at 60 min after the start of the reaction and promptly quenched with ice cold acetonitrile. Samples were vortexed and centrifuged at 3,500 rpm for 10 min. The amount of compound in the supernatant was determined by liquid chromatography–tandem mass spectrometry (LC/MS/MS) (Thermo Fischer Scientific, San Jose, CA, USA), and the percent of parent compound remaining after 60 min was calculated. Results are the mean of each reaction triplicate, normalized to the internal standard, and expressed as the percent of compound remaining after the incubation time.
(§2) Structures that are active in vitro may not be potent in vivo due to their susceptibility to metabolism in the body. We then thoroughly examined the liver microsomal metabolic stability of DMC-HA across three different species (Table 3). […] In addition, the half-life of DMC-HA in human microsome is generally two to three times longer than those in mice and rats. Collectively, the in vitro liver microsomal stability of DMC-HA is favorable, guaranteeing its further in vivo studies.

[3] = system: Human glioblastoma cell line U251; test: MTT cell viability assay, U251; format: cell-based; settings: U-251, 72 h, read-out: IC50 antiproliferative activity U251
Procedure: (§3) Cell viability was measured using the 3-(4,5-dimethylthiazol-2-yl)-2,5-diphenyltetrazolium bromide (MTT) assay and was expressed as a ratio to the absorbance value at 570 nm of the control cells.

all eight cell lines = test: Antiproliferative activity, panel of eight cancer cell lines (summary); format: cell-based; settings: Homo sapiens, read-out: IC50 values against all eight cell lines
Procedure: Cells (5 × 10^4) were seeded into 96-well plates and exposed to vehicle (PBS) or different concentrations of compounds for 72 h. Cell viability was measured using the 3-(4,5-dimethylthiazol-2-yl)-2,5-diphenyltetrazolium bromide (MTT) assay and was expressed as a ratio to the absorbance value at 570 nm of the control cells.
As DMC-HA was identified as a potent novel inhibitor for HDACs, its antiproliferative activities on a panel of cancer cell lines and normal cells were evaluated, including four glioma cell lines, and the results are shown in Table 2. Vorinostat and curcumin were also tested as positive controls. […].

[4] = system: Human colon carcinoma cell line SW-620; test: MTT cell viability assay, SW-620; format: cell-based; settings: SW-620, 72 h, read-out: IC50 antiproliferative activity SW-620
Procedure: as §3

[5] = system: Human lung cancer cell line A549; test: MTT cell viability assay, A549; format: cell-based; settings: A549, 72 h, read-out: IC50 antiproliferative activity A549
Procedure: as §3

[6] = system: Human leukemia cell line K562; test: MTT cell viability assay, K562; format: cell-based; settings: K562, 72 h, read-out: IC50 antiproliferative activity K562
Procedure: as §3

[7] = system: Human glioma cell line SHG44; test: MTT cell viability assay, SHG44; format: cell-based; settings: SHG-44, 72 h, read-out: IC50 antiproliferative activity SHG44
Procedure: as §3

[8] = system: Human umbilical vein endothelial cells HUVEC; test: MTT cell viability assay, HUVEC; format: cell-based; settings: Homo sapiens, HUVEC, 72 h, read-out: IC50 HUVEC
Procedure: as §3

[9] = Hepatic microsome stability assay, rat; format: in vitro ADME; settings: rat liver microsomes, NADPH, 37°C, pH 7.4
Procedure: as §1, §2

[10] = Hepatic microsome stability assay, mice; format: in vitro ADME; settings: mouse liver microsomes, NADPH, 37°C, pH 7.4
Procedure: as §1, §2

[11] = system: Human glioblastoma cell line U87; test: MTT cell viability assay, U87; format: cell-based; settings: 72 h, read-out: IC50 antiproliferative activity U87
Procedure: Human GBM U87 cell line was purchased from the American Type Culture Collection (ATCC). Cells were cultured in Dulbecco’s modified Eagle’s medium (DMEM) supplemented with 10% fetal bovine serum (FBS) and maintained in a 37°C, 5% CO2 incubator. After cells were routinely passaged at 2- to 3-day intervals, experiments were carried out when the cells entered exponential growth phase.
as §3

[12] = system: Human glioma cell line LN229; test: MTT cell viability assay, LN229; format: cell-based; settings: LN-229, 72 h, read-out: IC50 antiproliferative activity LN229
Procedure: as §3

[13] = system: Human liver cancer cell line HepG2; test: MTT cell viability assay, HepG2; format: cell-based; settings: HepG2, 72 h, read-out: IC50 antiproliferative activity HepG2
Procedure: as §3

Sequence of SIRT1 (Q96EB6 whole entry): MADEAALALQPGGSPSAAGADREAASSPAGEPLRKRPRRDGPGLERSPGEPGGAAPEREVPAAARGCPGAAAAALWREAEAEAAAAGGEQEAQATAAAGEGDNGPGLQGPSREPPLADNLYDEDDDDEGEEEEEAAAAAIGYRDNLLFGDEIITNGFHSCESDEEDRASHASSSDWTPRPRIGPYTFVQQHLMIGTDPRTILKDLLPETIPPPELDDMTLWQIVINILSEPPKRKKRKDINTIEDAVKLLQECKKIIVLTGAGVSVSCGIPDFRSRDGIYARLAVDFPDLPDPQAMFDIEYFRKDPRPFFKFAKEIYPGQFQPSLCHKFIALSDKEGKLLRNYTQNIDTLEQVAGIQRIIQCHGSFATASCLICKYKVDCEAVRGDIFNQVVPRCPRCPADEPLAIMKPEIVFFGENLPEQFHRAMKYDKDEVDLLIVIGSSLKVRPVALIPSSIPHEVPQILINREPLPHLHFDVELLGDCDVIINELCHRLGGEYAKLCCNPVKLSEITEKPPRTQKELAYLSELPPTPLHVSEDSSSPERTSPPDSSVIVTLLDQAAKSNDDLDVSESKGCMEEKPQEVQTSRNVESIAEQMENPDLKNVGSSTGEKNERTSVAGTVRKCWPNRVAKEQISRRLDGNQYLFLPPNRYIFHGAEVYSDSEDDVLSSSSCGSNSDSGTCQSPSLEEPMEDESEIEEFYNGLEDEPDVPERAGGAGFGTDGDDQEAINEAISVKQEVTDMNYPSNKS

SMILES | IC50 (SIRT1) [µM] | acetylation of histone H3, dose dependence [1] | effects on the body weight (U87 tumor xenograft) | toxicity during the administration period (U87 tumor xenograft) | microsomal CLint [2] [µL/min/mg] | half-life ([2]; read-out: Human Liver Microsomal Stability T1/2) [min] | IC50 [3] [µM] | IC50 (all eight cell lines) [µM] | IC50 [4] [µM] | IC50 [5] [µM] | IC50 [6] [µM] | IC50 [7] [µM] | IC50 [8] [µM] | microsomal CLint [9] [µL/min/mg] | half-life ([9]; read-out: Rat Liver Microsomal Stability T1/2) [min] | microsomal CLint [10] [µL/min/mg] | half-life ([10]; read-out: Mice Liver Microsomal Stability T1/2) [min] | IC50 [11] [µM] | IC50 [12] [µM] | IC50 [13] [µM]
O=C(CCCCCCC(=O)Nc1ccccc1)NO [Vorinostat, suberoylanilide hydroxamic acid, reference compound] | > 10 | dose dependently increased the acetylation of histone H3 | no effects on the body weight | no observable toxicity |  |  |  |  |  |  |  |  |  |  |  |  |  |  |  | 
COc1cc(/C=C/C(=O)CC(=O)/C=C/c2ccc(O)c(OC)c2)ccc1O [Curcumin, reference compound] |  |  |  |  | 82 | 17.2 | 27.6 ± 3.11 | 16.4 to 49.2 | 49.2 ± 7.42 | 32.9 ± 3.99 | 16.4 ± 1.23 | 24.6 ± 4.52 | 58.5 ± 7.92 | 138 | 10.4 | 92.9 | 15.3 | 31.9 ± 2.9 | 21.9 ± 4.65 | 18.3 ± 3.21
